Experimental findings from ChEMBL document CHEMBL3352338, “Development and biological evaluation of potent and selective c-KIT(D816V) inhibitors” (J Med Chem, 2014) are described below.

Activity calls are given as the source filed them. The rule behind the calls is not given here.

The target of assay [1] is Fibroblast growth factor receptor 2 (Homo sapiens) (UniProt P21802). Put plainly: Inhibition of FGFR2 (unknown origin) at 1 uM by KINOMEscanning assay relative to control; values are per cent of control.
Chain of Fibroblast growth factor receptor 2 (Homo sapiens) (P21802 22-821 limits assumed): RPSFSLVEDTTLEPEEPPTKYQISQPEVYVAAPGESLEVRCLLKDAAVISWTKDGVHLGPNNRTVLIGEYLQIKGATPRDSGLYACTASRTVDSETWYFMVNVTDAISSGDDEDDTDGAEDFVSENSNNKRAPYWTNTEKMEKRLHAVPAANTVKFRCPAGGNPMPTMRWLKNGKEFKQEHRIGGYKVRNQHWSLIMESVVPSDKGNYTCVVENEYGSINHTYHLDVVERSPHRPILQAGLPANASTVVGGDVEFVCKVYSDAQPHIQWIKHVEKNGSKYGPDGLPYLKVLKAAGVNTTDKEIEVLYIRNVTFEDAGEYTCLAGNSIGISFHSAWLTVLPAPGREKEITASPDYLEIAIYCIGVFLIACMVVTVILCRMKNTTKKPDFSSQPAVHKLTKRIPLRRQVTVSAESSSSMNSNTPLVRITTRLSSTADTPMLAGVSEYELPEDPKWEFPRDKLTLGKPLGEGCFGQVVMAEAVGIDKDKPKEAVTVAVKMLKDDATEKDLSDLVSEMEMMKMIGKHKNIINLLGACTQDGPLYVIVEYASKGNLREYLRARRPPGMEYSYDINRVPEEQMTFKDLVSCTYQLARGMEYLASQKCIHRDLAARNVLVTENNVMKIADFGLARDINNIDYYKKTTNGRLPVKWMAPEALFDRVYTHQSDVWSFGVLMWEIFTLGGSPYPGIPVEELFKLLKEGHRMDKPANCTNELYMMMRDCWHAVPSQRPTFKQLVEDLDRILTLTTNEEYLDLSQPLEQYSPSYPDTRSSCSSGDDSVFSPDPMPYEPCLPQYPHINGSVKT
Assay [2] concerns the target ALK tyrosine kinase receptor (Homo sapiens) (UniProt Q9UM73). Briefly: Inhibition of ALK (unknown origin) at 1 uM by KINOMEscanning assay relative to control; values are per cent of control.
Assay [3] deals with T1, Inhibitor of nuclear factor kappa-B kinase subunit alpha (Homo sapiens) (UniProt O15111).
T1 sequence (whole entry): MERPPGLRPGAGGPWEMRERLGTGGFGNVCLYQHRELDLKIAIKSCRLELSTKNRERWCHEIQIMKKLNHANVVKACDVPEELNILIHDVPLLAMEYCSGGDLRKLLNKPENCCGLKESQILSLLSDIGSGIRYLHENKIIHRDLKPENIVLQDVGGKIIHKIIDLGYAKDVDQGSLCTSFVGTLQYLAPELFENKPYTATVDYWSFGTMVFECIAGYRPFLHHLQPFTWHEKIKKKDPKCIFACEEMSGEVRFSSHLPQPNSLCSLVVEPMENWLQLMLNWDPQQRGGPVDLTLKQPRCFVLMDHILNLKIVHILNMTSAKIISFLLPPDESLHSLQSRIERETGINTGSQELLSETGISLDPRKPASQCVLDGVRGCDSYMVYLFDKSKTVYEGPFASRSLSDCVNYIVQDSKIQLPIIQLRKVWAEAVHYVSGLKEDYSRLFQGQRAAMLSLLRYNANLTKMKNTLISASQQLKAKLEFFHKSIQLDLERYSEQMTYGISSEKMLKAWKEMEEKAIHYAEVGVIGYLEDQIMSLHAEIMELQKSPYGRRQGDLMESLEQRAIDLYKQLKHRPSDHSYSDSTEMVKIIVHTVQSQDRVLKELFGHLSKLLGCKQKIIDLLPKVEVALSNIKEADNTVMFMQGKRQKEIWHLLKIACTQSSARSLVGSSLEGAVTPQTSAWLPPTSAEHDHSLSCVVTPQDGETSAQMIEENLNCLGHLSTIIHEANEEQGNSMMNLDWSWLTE
Briefly: Inhibition of IKKalpha (unknown origin) at 1 uM by KINOMEscanning assay relative to control; values are per cent of control.

The target in assay [4] is Cyclin-dependent kinase 9 (Homo sapiens) (UniProt P50750). Briefly: Inhibition of CDK9 (unknown origin) at 1 uM by KINOMEscanning assay relative to control; values are per cent of control.
Chain of Cyclin-dependent kinase 9 (Homo sapiens) (P50750 whole entry): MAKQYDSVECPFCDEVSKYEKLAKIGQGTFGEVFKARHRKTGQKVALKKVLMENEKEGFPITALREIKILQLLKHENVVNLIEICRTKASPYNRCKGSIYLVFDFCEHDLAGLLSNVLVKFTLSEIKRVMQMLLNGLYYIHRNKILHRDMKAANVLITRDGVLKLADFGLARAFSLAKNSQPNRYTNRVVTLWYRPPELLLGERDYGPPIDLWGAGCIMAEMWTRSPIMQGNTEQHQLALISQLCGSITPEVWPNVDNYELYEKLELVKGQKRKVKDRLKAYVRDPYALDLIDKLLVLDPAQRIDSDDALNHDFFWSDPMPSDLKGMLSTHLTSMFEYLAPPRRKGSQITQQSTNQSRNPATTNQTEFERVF
Assay [5] deals with 5'-AMP-activated protein kinase catalytic subunit alpha-2 (Homo sapiens) (UniProt P54646). Put plainly: Inhibition of AMPKalpha 2 (unknown origin) at 1 uM by KINOMEscanning assay relative to control; values are per cent of control.
Chain of 5'-AMP-activated protein kinase catalytic subunit alpha-2 (Homo sapiens) (P54646 whole entry, looked up): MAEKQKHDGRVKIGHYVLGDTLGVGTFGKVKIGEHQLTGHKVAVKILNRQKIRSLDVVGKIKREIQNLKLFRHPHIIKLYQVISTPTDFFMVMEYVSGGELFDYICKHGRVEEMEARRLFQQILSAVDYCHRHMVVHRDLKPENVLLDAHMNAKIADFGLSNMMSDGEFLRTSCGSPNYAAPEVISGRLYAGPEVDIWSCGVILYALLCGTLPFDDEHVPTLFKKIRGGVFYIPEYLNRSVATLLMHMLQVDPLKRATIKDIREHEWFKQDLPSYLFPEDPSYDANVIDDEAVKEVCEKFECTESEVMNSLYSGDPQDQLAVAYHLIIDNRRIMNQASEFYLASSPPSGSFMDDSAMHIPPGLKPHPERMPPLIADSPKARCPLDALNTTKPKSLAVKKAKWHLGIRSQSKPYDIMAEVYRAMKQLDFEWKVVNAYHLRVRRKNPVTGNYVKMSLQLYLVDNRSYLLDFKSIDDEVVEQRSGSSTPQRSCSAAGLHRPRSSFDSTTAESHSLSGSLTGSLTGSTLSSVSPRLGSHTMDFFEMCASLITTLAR
Assay [6] deals with Serine/threonine-protein kinase PLK1 (Homo sapiens) (UniProt P53350). Put plainly: Inhibition of PLK1 (unknown origin) at 1 uM by KINOMEscanning assay relative to control; values are per cent of control.
Assay [7] concerns the target Mast/stem cell growth factor receptor Kit (Homo sapiens, UniProt P10721, D816V). Briefly: Inhibition of c-KIT D816V mutant (unknown origin).
Assay [8] has as its target T2, Serine/threonine-protein kinase 17A (Homo sapiens) (UniProt Q9UEE5).
T2 sequence (whole entry): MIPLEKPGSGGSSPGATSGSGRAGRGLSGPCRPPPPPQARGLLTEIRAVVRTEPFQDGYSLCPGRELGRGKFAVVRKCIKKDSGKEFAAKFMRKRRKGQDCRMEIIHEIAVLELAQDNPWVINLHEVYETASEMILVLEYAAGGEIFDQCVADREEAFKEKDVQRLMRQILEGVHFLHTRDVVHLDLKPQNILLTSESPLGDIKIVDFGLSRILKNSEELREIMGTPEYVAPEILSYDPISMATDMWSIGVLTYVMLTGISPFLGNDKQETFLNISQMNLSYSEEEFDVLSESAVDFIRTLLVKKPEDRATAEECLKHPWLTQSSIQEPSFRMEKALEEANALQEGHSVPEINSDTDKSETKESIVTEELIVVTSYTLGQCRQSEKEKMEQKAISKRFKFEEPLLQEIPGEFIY
Put plainly: Inhibition of DRAK1 (unknown origin) at 1 uM by KINOMEscanning assay relative to control; values are per cent of control.

Assay [9] has as its target High affinity nerve growth factor receptor (Homo sapiens) (UniProt P04629). Put plainly: Inhibition of TRKA (unknown origin) at 1 uM by KINOMEscanning assay relative to control; values are per cent of control.
The target of assay [10] is Mitogen-activated protein kinase 14 (Homo sapiens) (UniProt Q16539). Briefly: Inhibition of p38alpha (unknown origin) at 1 uM by KINOMEscanning assay relative to control; values are per cent of control.
In assay [11] the target is Aurora kinase B (Homo sapiens) (UniProt Q96GD4). Put plainly: Inhibition of AURKB (unknown origin) at 1 uM by KINOMEscanning assay relative to control; values are per cent of control.
Chain of Aurora kinase B (Homo sapiens) (Q96GD4 whole entry): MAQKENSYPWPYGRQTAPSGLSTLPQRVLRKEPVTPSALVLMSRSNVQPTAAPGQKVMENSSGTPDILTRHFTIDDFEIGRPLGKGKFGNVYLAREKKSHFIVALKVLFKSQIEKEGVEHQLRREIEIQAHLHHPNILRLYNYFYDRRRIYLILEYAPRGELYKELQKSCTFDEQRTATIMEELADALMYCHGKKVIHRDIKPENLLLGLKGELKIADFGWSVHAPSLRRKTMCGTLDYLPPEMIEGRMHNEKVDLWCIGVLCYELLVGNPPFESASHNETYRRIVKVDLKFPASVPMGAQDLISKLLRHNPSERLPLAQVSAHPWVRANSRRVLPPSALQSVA
Assay [12] deals with T3, Mast/stem cell growth factor receptor Kit (Homo sapiens, UniProt P10721). Briefly: Inhibition of c-KIT (unknown origin) at 1 uM by KINOMEscanning assay relative to control; values are per cent of control.
T3 sequence (P10721 whole entry): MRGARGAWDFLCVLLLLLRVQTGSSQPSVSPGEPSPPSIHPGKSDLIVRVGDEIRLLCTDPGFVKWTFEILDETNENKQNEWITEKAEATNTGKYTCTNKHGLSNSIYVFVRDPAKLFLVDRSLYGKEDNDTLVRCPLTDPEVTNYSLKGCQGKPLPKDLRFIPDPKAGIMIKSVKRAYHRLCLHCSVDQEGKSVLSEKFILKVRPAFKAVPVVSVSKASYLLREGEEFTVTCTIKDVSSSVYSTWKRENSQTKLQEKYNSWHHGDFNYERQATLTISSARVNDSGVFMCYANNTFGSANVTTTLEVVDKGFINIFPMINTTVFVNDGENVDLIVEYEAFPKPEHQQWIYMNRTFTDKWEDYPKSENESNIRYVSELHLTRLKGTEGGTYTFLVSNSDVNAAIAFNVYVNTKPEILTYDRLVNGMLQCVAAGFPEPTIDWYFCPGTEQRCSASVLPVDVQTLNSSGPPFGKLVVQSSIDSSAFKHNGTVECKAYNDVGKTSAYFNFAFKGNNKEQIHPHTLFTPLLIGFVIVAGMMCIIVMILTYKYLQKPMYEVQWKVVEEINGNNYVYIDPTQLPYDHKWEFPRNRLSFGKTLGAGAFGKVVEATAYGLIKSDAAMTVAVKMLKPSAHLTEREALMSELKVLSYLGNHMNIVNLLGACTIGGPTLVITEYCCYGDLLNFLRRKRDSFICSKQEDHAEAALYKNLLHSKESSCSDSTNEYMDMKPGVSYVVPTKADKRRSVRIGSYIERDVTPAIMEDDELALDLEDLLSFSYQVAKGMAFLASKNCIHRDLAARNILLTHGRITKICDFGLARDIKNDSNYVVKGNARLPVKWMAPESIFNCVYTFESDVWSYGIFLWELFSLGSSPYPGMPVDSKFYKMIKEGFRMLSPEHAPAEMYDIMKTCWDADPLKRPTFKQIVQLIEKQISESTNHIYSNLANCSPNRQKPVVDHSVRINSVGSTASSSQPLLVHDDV
Assay [13] concerns the target Calcium/calmodulin-dependent protein kinase type 1 (Homo sapiens) (UniProt Q14012). Put plainly: Inhibition of CAMK1 (unknown origin) at 1 uM by KINOMEscanning assay relative to control; values are per cent of control.
Assay [14] addresses Phosphatidylinositol 4,5-bisphosphate 3-kinase catalytic subunit beta isoform (Homo sapiens) (UniProt P42338). Briefly: Inhibition of PI3Kbeta (unknown origin) at 1 uM by KINOMEscanning assay relative to control; values are per cent of control.
For assay [15], the target named is Vascular endothelial growth factor receptor 1 (Homo sapiens) (UniProt P17948). Briefly: Inhibition of FLT1 (unknown origin) at 1 uM by KINOMEscanning assay relative to control; values are per cent of control.
Assay [16] has as its target T3, Mast/stem cell growth factor receptor Kit. Particulars: 5 uM.
Description: Inhibition of c-KIT in imatinib-resistant human HMC-1.2 cells assessed as suppression of STAT3 phosphorylation at 5 uM after 1 hr by Western immunoblotting analysis

Chain of Phosphatidylinositol 4,5-bisphosphate 3-kinase catalytic subunit beta isoform (Homo sapiens) (P42338 whole entry, looked up, canonical isoform): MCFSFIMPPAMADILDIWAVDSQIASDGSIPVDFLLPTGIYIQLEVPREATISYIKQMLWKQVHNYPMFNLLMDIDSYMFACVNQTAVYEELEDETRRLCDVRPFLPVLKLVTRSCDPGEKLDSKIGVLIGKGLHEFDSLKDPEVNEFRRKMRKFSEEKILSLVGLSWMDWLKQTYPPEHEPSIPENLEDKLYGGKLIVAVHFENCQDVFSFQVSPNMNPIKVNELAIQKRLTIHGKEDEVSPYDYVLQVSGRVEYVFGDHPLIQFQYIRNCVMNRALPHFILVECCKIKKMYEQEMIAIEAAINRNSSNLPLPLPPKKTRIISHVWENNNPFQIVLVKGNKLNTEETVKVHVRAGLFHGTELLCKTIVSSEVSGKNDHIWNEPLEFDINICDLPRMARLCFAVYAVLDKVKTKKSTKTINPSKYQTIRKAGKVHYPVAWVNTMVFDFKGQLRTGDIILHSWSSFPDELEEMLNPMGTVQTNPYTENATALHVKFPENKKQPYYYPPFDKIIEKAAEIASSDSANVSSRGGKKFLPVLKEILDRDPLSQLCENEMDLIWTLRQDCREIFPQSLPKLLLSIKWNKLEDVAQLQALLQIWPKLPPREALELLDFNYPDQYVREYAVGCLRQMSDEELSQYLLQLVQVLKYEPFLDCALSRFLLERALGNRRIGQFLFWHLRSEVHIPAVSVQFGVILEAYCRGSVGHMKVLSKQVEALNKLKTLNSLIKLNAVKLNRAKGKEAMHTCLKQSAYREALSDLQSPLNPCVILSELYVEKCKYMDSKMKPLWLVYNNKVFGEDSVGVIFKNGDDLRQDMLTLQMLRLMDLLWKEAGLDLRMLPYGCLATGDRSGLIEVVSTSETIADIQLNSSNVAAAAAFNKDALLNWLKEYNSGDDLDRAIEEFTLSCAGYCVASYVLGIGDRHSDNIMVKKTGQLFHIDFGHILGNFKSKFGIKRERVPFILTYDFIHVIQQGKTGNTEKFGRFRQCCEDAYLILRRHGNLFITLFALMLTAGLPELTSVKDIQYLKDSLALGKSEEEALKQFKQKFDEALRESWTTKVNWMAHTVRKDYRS
Chain of Mast/stem cell growth factor receptor Kit (Homo sapiens, UniProt P10721, D816V) (P10721 26-976 D816V limits assumed): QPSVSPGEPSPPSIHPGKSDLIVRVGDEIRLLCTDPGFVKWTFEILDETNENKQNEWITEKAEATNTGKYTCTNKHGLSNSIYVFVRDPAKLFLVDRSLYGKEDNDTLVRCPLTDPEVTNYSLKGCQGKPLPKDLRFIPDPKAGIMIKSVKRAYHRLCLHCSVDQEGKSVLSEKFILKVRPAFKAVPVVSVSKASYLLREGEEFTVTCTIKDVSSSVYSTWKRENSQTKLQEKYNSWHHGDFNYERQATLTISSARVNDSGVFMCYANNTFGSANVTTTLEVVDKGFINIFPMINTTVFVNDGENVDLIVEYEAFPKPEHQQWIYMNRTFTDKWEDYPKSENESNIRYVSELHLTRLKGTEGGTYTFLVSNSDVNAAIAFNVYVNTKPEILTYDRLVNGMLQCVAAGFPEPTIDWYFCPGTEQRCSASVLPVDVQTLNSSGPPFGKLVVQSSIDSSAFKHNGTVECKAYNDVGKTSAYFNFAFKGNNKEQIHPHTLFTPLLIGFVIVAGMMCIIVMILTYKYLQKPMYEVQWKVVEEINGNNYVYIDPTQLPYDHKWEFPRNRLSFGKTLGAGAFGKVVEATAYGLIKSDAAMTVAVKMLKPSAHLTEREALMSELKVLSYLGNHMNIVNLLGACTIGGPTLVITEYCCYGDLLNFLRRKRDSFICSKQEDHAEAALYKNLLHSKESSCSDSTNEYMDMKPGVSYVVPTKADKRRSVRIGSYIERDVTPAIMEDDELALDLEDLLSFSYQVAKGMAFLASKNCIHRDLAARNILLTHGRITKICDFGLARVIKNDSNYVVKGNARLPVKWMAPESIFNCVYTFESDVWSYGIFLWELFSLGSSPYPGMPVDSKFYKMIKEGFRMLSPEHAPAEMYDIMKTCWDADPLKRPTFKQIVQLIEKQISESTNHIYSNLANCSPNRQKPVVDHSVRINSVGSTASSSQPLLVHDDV

Consider `COc1ccc(-c2c[nH]c3ncc(-c4ccc(C(=O)N5CCOCC5)c(N)c4)cc23)cc1OC`, for which the residual activity in [1] came to 89%; in assay [2], 76%; in assay [3] it was 2.2%; in assay [4], 100%; in [5], 82%; in assay [6] it was 84%. For the same molecule, the residual activity in assay [8] amounted to 0.25%; in assay [9], 11%; in assay [10], 94%; in [11], 44%; in assay [12], 51%; in [13], 62%. The residual activity in assay [14] is 95%; in [15] it was 56%. Moreover, in assay [7], the midpoint of inhibition, the IC50, lay at 8.5 nM.
Turning to `COc1ccc(-c2cnc3[nH]cc(-c4ccc(OC)c(OC)c4)c3c2)cc1OC`, the residual activity in assay [1] was 100%; in assay [2], 43%; in assay [3], 10%; in [4] it was 100%; in [5], 81%; in assay [6], 98%. The residual activity in assay [8] was found to be 0.2%; in assay [9], 26%; in assay [10], 96%; in [11] it was 82%; in assay [12] it was 0.8%; in assay [13], 63%. The residual activity in assay [14] came out at 100%; in [15], 81%. Also, the concentration for half-maximal inhibition (IC50) in assay [7] stood at 2.1 nM. The inhibition entry in assay [16] is “Active”.
On to `COc1cc(-c2c[nH]c3ncc(-c4cccc(N)c4)cc23)cc(OC)c1OC`, for which the residual activity was 100% in [1]; 33% in [2]; 46% in assay [3]; 83% in [4]; 77% in assay [5]; 100% in assay [6]. Also, the residual activity in assay [8] worked out at 86%; in assay [9] it was 83%; in assay [10], 100%; in assay [11] it was 31%; in assay [12] it was 9.8%; in assay [13], 53%. In addition, the residual activity came out at 87% in assay [14] and 36% in [15]. Besides, in [7], the IC50 was 97.7 nM. The inhibition entry in [16] was “Active”.
Take `COc1ccc(-c2c[nH]c3ncc(-c4cc(OC)c(OC)c(OC)c4)cc23)cc1OC`: the residual activity in [1] was 100%; in assay [2], 40%; in assay [3] it was 70%; in [4], 100%; in [5] it was 86%; in assay [6], 99%. Besides, the residual activity in [8] stood at 0.95%; in [9] it was 46%; in [10], 100%; in [11] it was 92%; in assay [12] it was 19%; in assay [13], 61%. Further, the residual activity in [14] amounted to 94%; in assay [15], 75%. The IC50 in assay [7] was 8.8 nM. Also, in [16], the inhibition result was “Active”.
Take `COc1ccc(-c2cnc3[nH]cc(-c4ccc(OC)c(OC)c4)c3c2)cc1N`: the residual activity stood at 100% in assay [1]; 51% in [2]; 26% in assay [3]; 100% in assay [4]; 87% in [5]; 84% in assay [6]. The residual activity in [8] was 2.4%; in [9], 11%; in assay [10], 93%; in [11], 85%; in assay [12], 37%; in assay [13], 71%. The residual activity in [14] was found to be 93%; in [15] it was 43%. The molecule further came in with an IC50 in assay [7] of 25.6 nM. In assay [16], the inhibition entry is “Active”.

For orientation: IC50 means the point on the concentration scale where inhibition reaches its midpoint. A low value points to higher potency.
